From patent US12358910B2, “Heteroaromatic compounds as Vanin inhibitors” (Boehringer Ingelheim International GmbH, priority 2018, dated 2025)

Key:
Pantetheinase (vanin) = test: Human Whole Blood assay (vanin activity by pantothenic acid formation); type: cell-based; settings: pantethine substrate, 5 min reaction at room temperature, geometric mean in case of multiple measurements, read-out: HWB IC50
Method: Human Whole Blood assay: Pantetheinase (vanin) converts panteheine into pantothenic acid and cysteamine. Accordingly, in the described protocol vanin activity is quantified by formation of pantothenic acid after pantetheine supplementation via pantethine. The assay is applicable to identify vanin inhibitors. Compound stocks are dissolved in DMSO at 10 mM. Further dilutions are performed in RPMI 1640 medium (Gibco, #A-10491-01) and final concentrations in the assay are 0.032 nM-500 nM.
Human blood is drawn into a blood bag (1% heparin, 50 I.E./mL). Blood is aliquoted into cavities of 96-deep-well plates at 290 μL and mixed with 10 μL compound solution or vehicle (30 sec at 1400 rpm on a shaker). Equilibration follows at room temperature, 250 rpm and for 30 min. The assay is started by adding 10 μL of substrate solution (2 μM pantethine in 1 mM DTT, 0.0025% Brij-35, 50 mM HEPES, pH7.5) to each well, except for some blank wells which receive […] substrate buffer (1 mM DTT, 0.0025% Brij-35, 50 mM HEPES, pH7.5) only. Samples are thoroughly shaken (30 sec, 1400 rpm) and reaction is allowed to take place at room temperature, 250 rpm and for 5 min. The reaction is stopped by addition of a vanin tool inhibitor in excess (BI-1 total conc. 10 μM). Centrifugation of the plate follows at 4° C., 665 G for 10 min. Then the blood plasma samples (100 μL) are transferred into another 96-deep-well plate and proteins are precipitated (5 min on ice) by adding 100 μL of ice cold precipitation solution (1 μM labelled pantothenic acid (di-β-alanine-13C6,15N2 calcium salt, Sigma, #705837) in acetonitrile).
Afterwards the plate is centrifuged (4° C., 3220 G, 10 min) and supernatants (50 μL) are collected into another 96-deep-well plate and mixed (10 sec, 1400 rpm) with 150 μL ice cold formic acid (0.1%, Carl Roth GmbH+Co.KG, #CP03.1). The formation of pantothenic acid is detected by RapidFire Mass Spectrometry. A TripleQuad 6500+(ABSciex, Germany) is equipped with an LC-1290 system, a RapidFire autosampler (Agilent, Germany) and a C18 cartridge Type C 12 μL (Agilent Cat #G9526-80000). Mobile phase A is consisting of 0.09% formic acid and 0.01% trifluoroacetic acid in water and mobile phase B of 0.09% formic acid and 0.01% trifluoroacetic acid in acetonitrile/methanol/water=47.5/47.5/5.

[1] = target: T1, FLAG-tagged Vanin-1 (AA 22-493, T26I) (Homo sapiens, UniProt O95497, T26I); test: Vanin-1 enzymatic assay (pantothenic acid formation, RapidFire mass spectrometry); type: biochemical; settings: 0.1 nM FLAG-tagged Vanin-1, 3 μM D-pantethine, room temperature; geometric mean in case of multiple measurements; read-out: VNN-1 IC50
T1 construct: FLAG-tagged Vanin-1 (AA 22-493, T26I, produced internally); FLAG; made in house
T1 sequence (O95497 22-493 T26I): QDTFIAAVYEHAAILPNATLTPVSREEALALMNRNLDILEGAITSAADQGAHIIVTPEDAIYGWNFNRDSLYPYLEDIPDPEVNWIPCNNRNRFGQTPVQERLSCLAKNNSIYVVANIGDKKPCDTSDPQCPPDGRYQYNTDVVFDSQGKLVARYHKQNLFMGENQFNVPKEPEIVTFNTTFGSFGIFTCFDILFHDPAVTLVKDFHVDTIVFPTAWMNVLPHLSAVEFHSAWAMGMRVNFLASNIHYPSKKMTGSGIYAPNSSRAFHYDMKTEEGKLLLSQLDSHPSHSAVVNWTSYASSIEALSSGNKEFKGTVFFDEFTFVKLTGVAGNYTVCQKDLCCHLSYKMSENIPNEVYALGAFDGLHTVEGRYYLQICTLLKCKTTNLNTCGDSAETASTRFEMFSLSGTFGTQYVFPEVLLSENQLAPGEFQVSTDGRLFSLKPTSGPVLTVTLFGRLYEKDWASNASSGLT
Method: Description of Biological Properties Vanin-1 Enzymatic Assay:
The test compounds are dissolved in 100% DMSO at a concentration of 10 mM and in a first step diluted in DMSO to a concentration of 5 mM, followed by serial dilution steps in 100% DMSO. Dilution factor and number of dilution steps may vary according to needs. Typically 8 different concentrations by 1:5 dilutions are prepared, a further intermediate dilutions of the substances is carried out with assay buffer resulting in 1% final DMSO concentration in the assay.
0.1 nM of FLAG-tagged Vanin-1 (AA 22-493, T26I, produced internally) and test compounds are incubated at room temperature for 20 minutes in assay buffer (1 mM DTT, 0.0025% Brij-35, 50 mM HEPES, pH7.5). D-Pantethine (Sigma, Cat #P2125-5G) in assay buffer is added (final concentration 3 μM) and incubated for additional 30 minutes at room temperature. Total assay volume typically is 40 μl but might be adjusted according to needs. Reaction is stopped by adding equal volume of stop solution as the reaction mixture to reach 100 nM HD-pantothenic acid (as an internal standard) and 1% TFA. Assay plates are centrifuged for 2 minutes and the formation of pantothenic acid is detected by RapidFire Mass Spectrometry (mobile phase A: 0.1% formic acid and 0.01% trifluoroacetic acid in water; mobile phase B: 47.5% acetonitrile, 47.5% methanol, 0.1% formic acid and 0.01% trifluoroacetic acid in water) using a C18, 12 μL cartridge (Agilent Cat #G9205A).
The values given in Table I result from measurements of one or more samples. In case of multiple measurements the geometric mean values are given.

SMILES	IC50 (Pantetheinase (vanin))	IC50 [1]
CN(C(=O)C1(C)CCC1)[C@H]1CCN(C(=O)c2ccc(NCc3cnc4ccccn34)nc2)C1 [Example 1.14]	2.59 nM	0.18 nM
CC(=O)N(C)[C@H]1CCN(C(=O)c2ccc(NCc3csc4ccccc34)nc2)C1 [Example 3.1, N-[(3S)-1-(6-{1[(1-Benzothiophen-3-yl)methyl]amino}pyridine-3-carbonyl)pyrrolidin-3-yl]-N-methylacetamide]	7.21 nM	0.41 nM
CC(=O)N(C)[C@H]1CCN(C(=O)c2ccc(N[C@@H](C)c3cccc4c3cnn4C)nc2)C1 [Example 5.2]	1.68 nM	0.07 nM
CC(=O)N(C)[C@H]1CCN(C(=O)c2ccc(NCc3cncc4ccsc34)nc2)C1 [Example 5.1, N-Methyl-N-[(3S)-1-{6-[({thieno[3,2-c]pyridin-7-yl}methyl)amino]pyridine-3-carbonyl}pyrrolidin-3-yl]acetamide]	1.17 nM	0.04 nM
CN(C(=O)C1(C#N)CC1)[C@H]1CCN(C(=O)c2ccc(NCc3cnc4ccccn34)nc2)C1 [Example 1.13]	3.03 nM	0.15 nM
CC(=O)N(C)[C@H]1CCN(C(=O)c2ccc(N[C@@H](C)c3nc4cc(Cl)ccc4[nH]3)nc2)C1 [Example 5.15]	7.52 nM	0.6 nM
C[C@H](Nc1ccc(C(=O)N2CC[C@H](N(C)C(=O)C3CC3)C2)cn1)c1cnc2[nH]ccc2c1 [Example 1.2]	1.94 nM	0.09 nM
CC(=O)N(C)[C@H]1CCN(C(=O)c2ccc(NCc3cccc4ncccc34)nc2)C1 [Example 5.24]	3.88 nM	1.23 nM
C[C@H](Nc1ccc(C(=O)N2CC[C@H](N(C)C(=O)C3(C#N)CC3)C2)cn1)c1cnc2[nH]ccc2c1 [Example 1.7]	1.7 nM	0.13 nM
CC(=O)N(C)[C@H]1CCN(C(=O)c2ccc(N[C@@H](C)c3cnc4[nH]ccc4c3)nc2)C1 [Example 5.9]	10.3 nM	0.18 nM
CC(=O)N(C)[C@H]1CCN(C(=O)c2ccc(NCc3n[nH]c4ccc(Cl)cc34)nc2)C1 [Example 2.1, N-[1(3S)-1-(6-{1[(5-Chloro-1H-indazol-3-yl)methyl]amino}pyridine-3-carbonyl)pyrrolidin-3-yl]-N-methylacetamide]	5.03 nM	0.23 nM
CC(=O)N(C)[C@H]1CCN(C(=O)c2ccc(N[C@@H](C)c3nc4ccccc4[nH]3)nc2)C1 [Example 5.23]	4.1 nM	1.43 nM
CC(=O)N(C)[C@H]1CCN(C(=O)c2ccc(NCc3noc4c3CCCC4)nc2)C1 [Example 5.21]	3.4 nM	0.79 nM
CC(=O)N(C)[C@H]1CCN(C(=O)c2ccc(NCc3cccc4[nH]ncc34)nc2)C1 [Example 5.3]	11.2 nM	0.09 nM
C[C@H](Nc1ccc(C(=O)N2CC[C@H](N(C)C(=O)C3CCC3)C2)cn1)c1cnc2[nH]ccc2c1 [Example 1.5]	1.58 nM	0.11 nM
CC1(C#N)CCN(C(=O)c2ccc(NCc3cnc4ccccn34)nc2)C1 (stereo not shown) [Example 1.18]	3.67 nM	0.41 nM

SMILES	IC50 (Pantetheinase (vanin))	IC50 [1]
CN(C(=O)C1CCC1)[C@H]1CCN(C(=O)c2ccc(NCc3cnc4ccccn34)nc2)C1 [Example 4.1, N-[(3S)-1-{6-[({Imidazo[1,2-a]pyridin-3-yl}methyl)amino]pyridine-3-carbonyl}pyrrolidin-3-yl]-N-methylcyclobutanecarboxamide]	1.63 nM	0.1 nM
C[C@H](Nc1ccc(C(=O)N2CC[C@H](N(C)C(=O)C3CC(F)(F)C3)C2)cn1)c1cnc2[nH]ccc2c1 [Example 1.10]	2.78 nM	0.16 nM
CC(=O)N(C)[C@H]1CCN(C(=O)c2ccc(NCc3c[nH]c4ccccc34)nc2)C1 [Example 5.16]	4.39 nM	0.62 nM
CC(=O)N(C)[C@H]1CCN(C(=O)c2ccc(NCc3ccc4nc[nH]c4c3)nc2)C1 [Example 5.7]	4.49 nM	0.14 nM
C[C@H](Nc1ccc(C(=O)N2CC[C@H](N(C)C(=O)C3CCC3)C2)cn1)c1cnc2[nH]ccc2c1 [Example 1.4]	2.07 nM	0.1 nM
CC(=O)N(C)[C@H]1CCN(C(=O)c2ccc(NCc3n[nH]c4ccccc34)nc2)C1 [Example 5.14]	1.69 nM	0.36 nM
CC(=O)N(C)[C@H]1CCN(C(=O)c2ccc(N[C@@H](C)c3ccc4nn(C)cc4c3)nc2)C1 [Example 5.38]	1.37 nM	0.36 nM
CC(=O)N(C)[C@H]1CCN(C(=O)c2ccc(NCc3c(C)ccc4nc(C)[nH]c34)nc2)C1 [Example 5.40]	1.06 nM	0.54 nM
CC(=O)N(C)[C@H]1CCN(C(=O)c2ccc(NC(C)c3cccc4[nH]ccc34)nc2)C1 (stereo partly shown) [Example 5.10]	1.41 nM	0.18 nM
CC1(C#N)CCN(C(=O)c2ccc(NCc3ncn4ccccc34)nc2)C1 (stereo not shown) [Example 1.17]	10.4 nM	0.83 nM
CC(=O)N(C)[C@H]1CCN(C(=O)c2ccc(NCc3cnc4ccsc4c3)nc2)C1 [Example 2.4]	1.39 nM	0.29 nM
CN(C(=O)C1CC(F)(F)C1)[C@H]1CCN(C(=O)c2ccc(NCc3cnc4ccccn34)nc2)C1 [Example 1.12]	1.48 nM	0.1 nM
CC(=O)N(C)[C@H]1CCN(C(=O)c2ccc(N[C@@H](C)c3ccc4[nH]ncc4c3)nc2)C1 [Example 5.8]	1.71 nM	0.16 nM
CN(C(=O)C1CC1)[C@H]1CCN(C(=O)c2ccc(NCc3cnc4ccccn34)nc2)C1 [Example 1.16]	2.78 nM	0.2 nM
C[C@H](Nc1ccc(C(=O)N2CC[C@H](N(C)C(=O)C3CC(F)(F)C3)C2)cn1)c1cnc2[nH]ccc2c1 [Example 1.6]	6.38 nM	0.12 nM
CC(=O)N(C)[C@H]1CCN(C(=O)c2ccc(NCc3ccc4[nH]ncc4c3)nc2)C1 [Example 5.22]	3.35 nM	0.82 nM
